Measurements taken from ChEMBL document CHEMBL4028802, “DILIrank: the largest reference drug list ranked by the risk for developing drug-induced liver injury in humans” (Drug Discov Today, 2016).
Starred links: 1 amine or outer side, 2 acyl side, 3 side chain; linkers in the order of their positions; H or OH if unused. Positions of bridges follow the written chain, without caps; N, C: chain ends. Non-standard residues stand in square brackets, D forms with d. Residues, ends and D or L forms follow the SMILES beside them. *: point of attachment. pTerphenylCO(4''-OnC5H11) = CCCCCOc1ccc(-c2ccc(-c3ccc(C(=O)*)cc3)cc2)cc1; Orn(4R-OH,5R-OH) = O=C([C@H](C[C@@H](O)[C@@H](O)N[*:3])N[*:1])[*:2]; hTyr(3S-OH,4S-OH) = N[C@H](C(=O)O)[C@H](O)[C@@H](O)c1ccc(O)cc1; Pro(3S-OH,4S-Me) = C[C@H]1CN[C@H](C(=O)O)[C@H]1O; Hyp = O=C(O)[C@@H]1C[C@@H](O)CN1

Columns and labels:
Homo sapiens [1] = species: Homo sapiens; test: Liver toxicity in human assessed as induction of drug-induced liver injury by measuring verified drug-induced liver injury concern status
Homo sapiens [2] = species: Homo sapiens; test: Liver toxicity in human assessed as induction of drug-induced liver injury by measuring severity class index
Wherever DILI severity class is given: key of the grades not given here.

Compound	DILI_Concern (Homo sapiens [1])	DILI_severity_class (Homo sapiens [2])
Clc1ccc2c(c1)C(N1CCNCC1)=Nc1ccccc1O2 [AMOXAPINE]	Ambiguous-Dili-Concern	3
CC1(C)S[C@@H]2[C@H](NC(=O)[C@H](N)c3ccc(O)cc3)C(=O)N2[C@H]1C(=O)O [AMOXICILLIN]	Less-Dili-Concern	5
CC(N)Cc1ccccc1 (configuration not stated) [AMPHETAMINE]	Less-Dili-Concern	0
C[C@@H]1[C@H](O)[C@@H](C)/C=C/C=C/C=C/C=C/C=C/C=C/C=C/[C@H](O[C@@H]2O[C@H](C)[C@@H](O)[C@H](N)[C@@H]2O)C[C@@H]2O[C@](O)(C[C@@H](O)C[C@@H](O)[C@H](O)CC[C@@H](O)C[C@@H](O)CC(=O)O[C@H]1C)C[C@H](O)[C@H]2C(=O)O [AMPHOTERICIN B]	Less-Dili-Concern	3
CC1(C)S[C@@H]2[C@H](NC(=O)[C@H](N)c3ccccc3)C(=O)N2[C@H]1C(=O)O [AMPICILLIN]	Less-Dili-Concern	3
O=C1CN2Cc3c(ccc(Cl)c3Cl)N=C2N1 [ANAGRELIDE]	Ambiguous-Dili-Concern	3
CC(C)(C#N)c1cc(Cn2cncn2)cc(C(C)(C)C#N)c1 [ANASTROZOLE]	Less-Dili-Concern	3
CCCCCOc1ccc(-c2ccc(-c3ccc(C(=O)N[C@H]4C[C@@H](O)[C@@H](O)NC(=O)[C@@H]5[C@@H](O)[C@@H](C)CN5C(=O)[C@H]([C@@H](C)O)NC(=O)[C@H]([C@H](O)[C@@H](O)c5ccc(O)cc5)NC(=O)[C@@H]5C[C@@H](O)CN5C(=O)[C@H]([C@@H](C)O)NC4=O)cc3)cc2)cc1 [ANIDULAFUNGIN] ({pTerphenylCO(4''-OnC5H11)}-[Orn(4R-OH,5R-OH)]T[Hyp][hTyr(3S-OH,4S-OH)]T[Pro(3S-OH,4S-Me)]; lactam 1-C)	Ambiguous-Dili-Concern	7
CCCCN1C(=O)[C@@H]([C@H](O)C2CCCCC2)NC(=O)C12CCN(Cc1ccc(Oc3ccc(C(=O)O)cc3)cc1)CC2 [APLAVIROC]	Most-Dili-Concern	8
CN1CCc2cccc3c2[C@H]1Cc1ccc(O)c(O)c1-3 [APOMORPHINE]	No-Dili-Concern	0
C[C@@H](O[C@H]1OCCN(Cc2n[nH]c(=O)[nH]2)[C@H]1c1ccc(F)cc1)c1cc(C(F)(F)F)cc(C(F)(F)F)c1 [APREPITANT]	Ambiguous-Dili-Concern	3
CC1CNc2c(cccc2S(=O)(=O)N[C@@H](CCCNC(=N)N)C(=O)N2CC[C@@H](C)C[C@@H]2C(=O)O)C1 (some centres not stated) [ARGATROBAN]	No-Dili-Concern	0
N=C(N)NCCC[C@H](N)C(=O)O [ARGININE]	No-Dili-Concern	0
O=C1CCc2ccc(OCCCCN3CCN(c4cccc(Cl)c4Cl)CC3)cc2N1 [ARIPIPRAZOLE]	Ambiguous-Dili-Concern	5
NC(=O)C[S@@+]([O-])C(c1ccccc1)c1ccccc1 [ARMODAFINIL]	Ambiguous-Dili-Concern	3
O=[As][As+](=O)[O-] (configuration not stated) [ARSENIC TRIOXIDE]	Ambiguous-Dili-Concern	3
O=C1O[C@H]([C@@H](O)CO)C(O)=C1O [ASCORBIC ACID]	No-Dili-Concern	0
CC(=O)Oc1ccccc1C(=O)O [ASPIRIN]	Less-Dili-Concern	0
COC(=O)N[C@H](C(=O)N[C@@H](Cc1ccccc1)[C@@H](O)CN(Cc1ccc(-c2ccccn2)cc1)NC(=O)[C@@H](NC(=O)OC)C(C)(C)C)C(C)(C)C [ATAZANAVIR]	Less-Dili-Concern	3
CC(C)NCC(O)COc1ccc(CC(N)=O)cc1 (configuration not stated) [ATENOLOL]	Less-Dili-Concern	4
CNCC[C@@H](Oc1ccccc1C)c1ccccc1 [ATOMOXETINE]	Most-Dili-Concern	8
